Laboratory results from US11805778B2, “Composition including an antimicrobial boosting agent including an amphocarboxylate and methods of increasing the antimicrobial effectiveness of a composition” (KIMBERLY-CLARK WORLDWIDE, INC., priority 2018, dated 2023).

System: B. cepacia (ATCC 25416)
Assay: Minimum Effective Concentration (MEC) Test Method
Type: cell-based, Burkholderia cepacia
Conditions: for MEC of antimicrobial agent Caprylhydroxamic Acid (Zeastat) / MEC of antimicrobial agent Hydroxyacetophenone (SymSave H) / MEC of antimicrobial agent Lactic Acid (Purac FCC 88) / MEC of antimicrobial agent Sodium Benzoate: B. cepacia, 24 hours; for performance as antimicrobial boosting agent: summary in words of the MEC testing of Table 1
Description: Initial testing was conducted to screen a variety of surfactants in researching for potential antimicrobial boosting agents. The initial testing followed the methodology as described in the Minimum Effective Concentration (“MEC”) Test Method described in the Test Methods section herein. To summarize, the MEC testing paired a variety of potential antimicrobial boosting agents with a variety of known antimicrobial agents to determine the MEC of the respective antimicrobial agent that must be used to provide an effective antimicrobial result, as described in further detail in the Test Methods section. The more positive the boosting characteristics of an antimicrobial boosting agent, then the lower the MEC that would be required for the paired antimicrobial agent. It is to be noted that the molarities listed in Table 1 are approximate values that were calculated based on the estimated activities of the ingredients and the molecular weights of the active ingredients. In instances where an exact activity was not available for an ingredient blend, the ingredient blend activity was estimated as the average of the upper and lower limits of the specification provided by the manufacturer of such blend. In instances where an exact molecular weight could not be calculated (for example, in compounds derived from a natural oil like coconut oil), the molecular weight of the active was estimated based on a weighted average of the molecular weights of the constituent species.
The Minimum Effective Concentration Test Method discussed herein began by adding B. cepacia (ATCC 25416) culture at a final concentration of approximately 5×10^6 CFU/mL to the composition to be challenged. The challenged composition was then allowed to incubate at room temperature for 24 hours. After 24 hours, a preservative neutralizing broth was added to the mixture and measurements were subsequently taken to determine the concentration of B. cepacia still remaining after exposure to the test composition.
The Minimum Effective Concentration was determined by completing the process described above on a series of compositions with the same concentration of antimicrobial boosting agent, but with different concentrations of antimicrobial agent. The Minimum Effective Concentration of antimicrobial agent for any given value of antimicrobial boosting agent was defined as the minimum concentration of antimicrobial agent required to reduce the concentration of B. cepacia to a level below the detection threshold for the test method, which was approximately 100 CFU/mL. In instances where multiple rounds of Minimum Effective Concentration testing were completed, the value reported is the mean of the Minimum Effective Concentration values generated by each individual series of tests.

[1] = paired with the labelled potential boosting agent at 5 mmol/L
[2] = no antimicrobial boosting agent

Compound | MEC of antimicrobial agent Lactic Acid (Purac FCC 88) [1] | performance as antimicrobial boosting agent | further results
Sodium Cocoamphopropionate [Rewoteric AM KSF 40] | <10 mmol/L |  | MEC of antimicrobial agent Caprylhydroxamic Acid (Zeastat) [1]: 4 mmol/L; MEC of antimicrobial agent Hydroxyacetophenone (SymSave H) [1]: 10 mmol/L; MEC of antimicrobial agent Sodium Benzoate [1]: 1.8 mmol/L
Cocamidopropyl Betaine [Dehyton PK-45] |  |  | MEC of antimicrobial agent Sodium Benzoate [1]: >15 mmol/L
CCCCCCCC[N+](C)(C)CC(=O)[O-] [Mackam BW-139, Octyl Betaine] | 40 mmol/L |  | 
C[N+](C)(CCO)CC(O)C[N+](C)(C)CCO.[Cl-].[Cl-] [Cola Moist 200, Hydroxypropyl Bis-Hydroxyethyldimonium Chloride] | 50 mmol/L |  | 
Polysorbate 20 [Eumulgin SML-20] | 50 mmol/L | did not perform well as antimicrobial boosting agents | MEC of antimicrobial agent Caprylhydroxamic Acid (Zeastat) [1]: 10 mmol/L; MEC of antimicrobial agent Hydroxyacetophenone (SymSave H) [1]: >20 mmol/L; MEC of antimicrobial agent Sodium Benzoate [1]: 5 mmol/L
O=C([O-])c1ccccc1.[Na+] [Sodium Benzoate] |  |  | MEC of antimicrobial agent Sodium Benzoate [2]: 7.5 mmol/L
CC(O)C(=O)O (centres unmarked) [Purac FCC 88, Lactic Acid] |  |  | MEC of antimicrobial agent Lactic Acid (Purac FCC 88) [2]: 60 mmol/L
Disodium Capryloamphodiacetate [Sopalteric DSCYA-27] | 30 mmol/L | provided at least some antimicrobial boosting effect | 
PEG-80 Sorbitan Laurate [Alkamuls PSML-80/72LD] | 50 mmol/L |  | 
CCCCCCCCCCCC(=O)OC(C)C(=O)OC(C)C(=O)[O-].[Na+] (centres unmarked) [Dermosoft SLL, Sodium Lauroyl Lactylate] | 30 mmol/L |  | 
CCCCCCCC[N+](C)(C)[O-] [Techmine 280, Octyldimethylamine Oxide] | 40 mmol/L |  | 
Sodium Laurylglucosides Hydroxypropylsulfonate [Suga Nate 160] | >50 mmol/L |  | 
Sodium Cocoamphoacetate [Mackam HPC-32L] | 40 mmol/L |  | 
CCCCCCCC(=O)NO [Zeastat, Caprylhydroxamic Acid] |  |  | MEC of antimicrobial agent Caprylhydroxamic Acid (Zeastat) [2]: 10 mmol/L
Caprylyl/Capryl Glucoside [Plantaren 810 UP] | 60 mmol/L |  | 
Sodium Cocoyl Isethionate [Hostapon SCI 85 P] | 50 mmol/L | did not perform well as antimicrobial boosting agents | 
sodium cocoamphoacetate |  | provided at least some antimicrobial boosting effect | 
Sodium Methyl Cocoyl Taurate [Hostapon CT Paste] |  |  | MEC of antimicrobial agent Sodium Benzoate [1]: 2.5 mmol/L
Cocamide DIPA [Cola Liquid DC] | Unstable | did not perform well as antimicrobial boosting agents | MEC of antimicrobial agent Hydroxyacetophenone (SymSave H) [1]: 20 mmol/L
Disodium PEG-12 Dimethicone Sulfosuccinate [Mackanate Ultra Si] | 40 mmol/L |  | 
Coco-Glucoside [Plantacare 818 UP] | >60 mmol/L | did not perform well as antimicrobial boosting agents | 
CCCCCCCCCCCCCCCC[N+](C)(C)CC(=O)[O-] [Mackam CET, Cetyl Betaine] | 40 mmol/L |  | 
Laureth-3 Phosphate [Dermalcare MAP L-130] | 40 mmol/L |  | 
Disodium Cocoamphodiacetate [Mackam 2C-75] | 30 mmol/L | provided at least some antimicrobial boosting effect | MEC of antimicrobial agent Caprylhydroxamic Acid (Zeastat) [1]: 4 mmol/L; MEC of antimicrobial agent Hydroxyacetophenone (SymSave H) [1]: 10 mmol/L; MEC of antimicrobial agent Sodium Benzoate [1]: 2.5 mmol/L
sodium cocoamphodipropionate |  | provided at least some antimicrobial boosting effect | 
Lauryl Glucoside [Plantaren 1200 N UP] | >30 mmol/L |  | MEC of antimicrobial agent Sodium Benzoate [1]: 10 mmol/L
PEG-40 Hydrogenated Castor Oil [Tagat CH40] | >60 mmol/L | did not perform well as antimicrobial boosting agents | MEC of antimicrobial agent Caprylhydroxamic Acid (Zeastat) [1]: 10 mmol/L; MEC of antimicrobial agent Hydroxyacetophenone (SymSave H) [1]: >20 mmol/L
Sodium Lauroamphoacetate [Sopalteric SLA-32] | 20 mmol/L | provided at least some antimicrobial boosting effect | 
Disodium Cocoamphodipropionate [Mackam 2CSF-40CG] | <10 mmol/L | provided at least some antimicrobial boosting effect | MEC of antimicrobial agent Caprylhydroxamic Acid (Zeastat) [1]: 6 mmol/L; MEC of antimicrobial agent Hydroxyacetophenone (SymSave H) [1]: 10 mmol/L; MEC of antimicrobial agent Sodium Benzoate [1]: 2.5 mmol/L
Sodium Cocoamphoacetate [ColaTeric 1C] | 30 mmol/L |  | MEC of antimicrobial agent Hydroxyacetophenone (SymSave H) [1]: 15 mmol/L
